Experimental data published in patent US9896435B2, “N-pyrrolidinyl,N′-pyrazolyl-urea, thiourea, guanidine and cyanoguanidine compounds as TrkA kinase inhibitors” (Array BioPharma Inc., priority 2012, dated 2018).

target: His-tagged recombinant human TrkA (Homo sapiens (Human), UniProt P04629); test: TrkA LanthaScreen Eu Kinase Binding Assay; conditions: averaged IC50; LanthaScreen binding assay of Example A; read-out: TrkA Enzyme IC50
Description: TrkA binding activity was determined in a TrkA LanthaScreen™ Eu Kinase Binding Assay. 5 nM His-tagged recombinant human TrkA (6HIS tagged cytoplasmic domain from Invitrogen, Catalog No. PV3144) was incubated with 4 nM Alexa-Fluor® Tracer 236 (Invitrogen Cat. No. PV5592), 2 nM biotinylated anti-His (Invitrogen Cat. No. PV6090), and 2 nM europium-labeled Streptavidin (Invitrogen Cat. No. PV5899), in buffer (25 mM MOPS, pH 7.5, 5 mM MgCl2, 0.005% Triton X-100). Three fold serial dilutions of compounds of the invention in DMSO were added to a final percentage of 2% DMSO. After 60-minute incubation at 22° C., the reaction was measured using the EnVision mutlimode plate reader (PerkinElmer) via TR-FRET dual wavelength detection at […]. The percent of control was calculated using a ratiometric emission factor. The IC50 values were determined by fitting a four parameter model to the percent of control data.
Table A provides averaged IC50 values for compounds of the invention when tested in the assay of Example A, where A represents an averaged IC50 value<100 nM.

His-tagged recombinant human TrkA, sequence (P04629 440-796): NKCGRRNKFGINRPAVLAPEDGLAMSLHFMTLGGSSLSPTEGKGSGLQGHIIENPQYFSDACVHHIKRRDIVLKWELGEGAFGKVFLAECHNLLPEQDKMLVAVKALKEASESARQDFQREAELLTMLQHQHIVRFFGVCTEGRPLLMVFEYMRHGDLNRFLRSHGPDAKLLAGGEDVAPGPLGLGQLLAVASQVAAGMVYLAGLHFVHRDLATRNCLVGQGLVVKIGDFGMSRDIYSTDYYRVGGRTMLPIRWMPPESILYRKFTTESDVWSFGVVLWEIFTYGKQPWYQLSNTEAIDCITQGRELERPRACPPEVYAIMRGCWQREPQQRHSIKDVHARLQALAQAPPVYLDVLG

Row | SMILES | IC50 [nM]
1 | COCCN1C[C@@H](NC(=O)Nc2c(C)c(-c3cnc(=O)n(C)c3)nn2-c2ccccc2)[C@H](c2ccc(F)c(F)c2)C1 [Example 28, 1-((3S,4R)-4-(3,4-difluorophenyl)-1-(2-methoxyethyl)pyrrolidin-3-yl)-3-(4-methyl-3-(1-methyl-2-oxo-1,2-dihydropyrimidin-5-yl)-1-phenyl-1H-pyrazol-5-yl)urea] | < 100
2 | COCCN1C[C@@H](NC(=O)Nc2c(C)c(-c3cc(C)c(=O)n(C)c3)nn2-c2ccccc2)[C@H](c2ccc(F)c(F)c2)C1 [Example 29, 1-((3S,4R)-4-(3,4-difluorophenyl)-1-(2-methoxyethyl)pyrrolidin-3-yl)-3-(3-(1,5-dimethyl-6-oxo-1,6-dihydropyridin-3-yl)-4-methyl-1-phenyl-1H-pyrazol-5-yl)urea] | < 100
3 | COCCN1C[C@@H](NC(=O)Nc2c(C)c(S(C)(=O)=O)nn2-c2ccccc2)[C@H](c2ccc(F)c(F)c2)C1 [Example 30, 1-((3S,4R)-4-(3,4-difluorophenyl)-1-(2-methoxyethyl)pyrrolidin-3-yl)-3-(4-methyl-3-(methylsulfonyl)-1-phenyl-1H-pyrazol-5-yl)urea] | < 100
4 | COCCN1C[C@@H](NC(=O)Nc2c(C)c(C(C)=O)nn2-c2ccccc2)[C@H](c2ccc(F)c(F)c2)C1 [Example 31, 1-(3-acetyl-4-methyl-1-phenyl-1H-pyrazol-5-yl)-3-((3S,4R)-4-(3,4-difluorophenyl)-1-(2-methoxyethyl)pyrrolidin-3-yl)urea] | < 100
